Toxic doses and inconclusive results are not listed. Rule for the calls: active = survival T/C of 150% or more; inactive = T/C below 125% in these data.
System: CD2F1 mice, L1210 leukemia ip, survival T/C
Assay: NCI In Vivo Anticancer Drug Screen. Data for tumor model L1210 Leukemia (intraperitoneal) in CD2F1 (CDF1) mice
Settings: endpoint: mean survival time, higher = longer survival
Procedure, shortened: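 Antitumor effect is scored in animals hosting a serially transplanted tumor. Values compare compound-dosed animals against vehicle-only controls as a simple quotient.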

[1] = dose: 50.0 mg/kg/injection, schedule: Q01DX009 (ip), vehicle: saline with Tween-80
[2] = dose: 100.0 mg/kg/injection, schedule: Q01DX009 (ip), vehicle: saline with Tween-80
[3] = dose: 100.0 mg/kg/injection, schedule: Q04DX003 (ip), vehicle: saline with Tween-80
[4] = dose: 200.0 mg/kg/injection, schedule: Q04DX003 (ip), vehicle: saline with Tween-80
[5] = dose: 200.0 mg/kg/injection, schedule: Q01DX009 (ip), vehicle: saline with Tween-80
[6] = dose: 100.0 mg/kg/injection, schedule: Q01DX001 (ip), vehicle: saline
[7] = dose: 200.0 mg/kg/injection, schedule: Q01DX001 (ip), vehicle: saline
[8] = dose: 400.0 mg/kg/injection, schedule: Q01DX001 (ip), vehicle: saline

Measured: T/C

O=[N+]([O-])c1ccc(SSc2ccc([N+](=O)[O-])cn2)nc1
inactive: [1] 93 % of control | [2] 89 % of control | [3] 100 % of control | [4] 100 % of control

O=C(O)/C=C/C(=O)Nc1cccc2ccccc12
inactive: [1] 105 % of control | [2] 100 % of control | [3] 95 % of control | [5] 89 % of control | [4] 105 % of control

FC(F)(F)c1[nH]nc(-c2ccc(Cl)cc2)c1N=NN1CCOCC1
inactive: dose: 75.0 mg/kg/injection, schedule: Q01DX001 (ip), vehicle: other 91 % of control | dose: 150.0 mg/kg/injection, schedule: Q01DX001 (ip), vehicle: other 95 % of control

C/C(=N/Nc1ccc([N+](=O)[O-])cc1[N+](=O)[O-])C(C)C
inactive: dose: 75.0 mg/kg/injection, schedule: Q04DX002 (ip), vehicle: saline with Tween-80 95 % of control | dose: 150.0 mg/kg/injection, schedule: Q04DX002 (ip), vehicle: saline with Tween-80 98 % of control | dose: 300.0 mg/kg/injection, schedule: Q04DX002 (ip), vehicle: saline with Tween-80 98 % of control

CCC1=C/C(=C\c2ccc3c(c2)OCO3)C(=O)S1
inactive: dose: 25.0 mg/kg/injection, schedule: Q04DX002 (ip), vehicle: saline with Tween-80 93 % of control | dose: 50.0 mg/kg/injection, schedule: Q04DX002 (ip), vehicle: saline with Tween-80 89 % of control | dose: 100.0 mg/kg/injection, schedule: Q04DX002 (ip), vehicle: saline with Tween-80 93 % of control

C[Si](c1ccccc1)c1ccccc1
inactive: dose: 100.0 mg/kg/injection, schedule: Q01DX001 (ip), vehicle: other 97 % of control | dose: 200.0 mg/kg/injection, schedule: Q01DX001 (ip), vehicle: other 100 % of control | dose: 400.0 mg/kg/injection, schedule: Q01DX001 (ip), vehicle: other 100 % of control

CC(C)OC(=O)Oc1cccs1
inactive: dose: 12.5 mg/kg/injection, schedule: Q01DX009 (ip), vehicle: saline with Tween-80 102 % of control | dose: 12.5 mg/kg/injection, schedule: Q04DX003 (ip), vehicle: saline sonified 103 % of control | dose: 25.0 mg/kg/injection, schedule: Q01DX009 (ip), vehicle: saline with Tween-80 96 % of control | dose: 25.0 mg/kg/injection, schedule: Q04DX003 (ip), vehicle: saline sonified 97 % of control | [1] 104 % of control | dose: 50.0 mg/kg/injection, schedule: Q04DX003 (ip), vehicle: saline sonified 101 % of control

CC(C)(C)OC(=O)NCCCCC(NC(=O)OC(C)(C)C)C(=O)O (configuration not stated)
inactive: [6] 100 % of control | [7] 110 % of control | [8] 97 % of control

O=CNc1cccc2ccc3c4ccccc4ccc3c12
inactive: [3] 98 % of control | dose: 400.0 mg/kg/injection, schedule: Q04DX003 (ip), vehicle: saline with Tween-80 91 % of control

Cn1nc(C#N)c2ccccc21
inactive: [6] 100 % of control | [7] 102 % of control | [8] 103 % of control

O=C(O)CCC(=O)CCC(=O)c1ccccc1
inactive: [1] 96 % of control | [2] 98 % of control | [3] 91 % of control | [5] 98 % of control

c1ccc(OCCOc2ccccc2)cc1
inactive: dose: 50.0 mg/kg/injection, schedule: Q04DX003 (ip), vehicle: saline with Tween-80 98 % of control | [3] 89 % of control | [4] 91 % of control

CC(=O)OCC(OC(C)=O)C1OC(OC2CCCCC2)C(OC(C)=O)C(OC(C)=O)C1OC(C)=O (configuration not stated)
inactive: dose: 100.0 mg/kg/injection, schedule: Q01DX001 (ip), vehicle: saline with Tween-80 93 % of control | dose: 200.0 mg/kg/injection, schedule: Q01DX001 (ip), vehicle: saline with Tween-80 98 % of control | dose: 400.0 mg/kg/injection, schedule: Q01DX001 (ip), vehicle: saline with Tween-80 88 % of control

C#CCOCCBr
inactive: dose: 50.0 mg/kg/injection, schedule: Q01DX009 (ip), vehicle: acetone 94 % of control | dose: 100.0 mg/kg/injection, schedule: Q01DX009 (ip), vehicle: acetone 100 % of control | dose: 200.0 mg/kg/injection, schedule: Q01DX009 (ip), vehicle: acetone 103 % of control

From PubChem BioAssay AID256 (DTP/NCI, 2004)
